Experiment [1] relates to model oligoribonucleotide (ORN) with 27 bases. The experiment can be described thus: Functionalisation of a model ORN with 27 bases: functionalisation rate and regiospecificity by HPLC/LC-MS after nuclease P1/alkaline phosphatase hydrolysis. Format: biochemical. As to conditions: for Fr (corrected functionalisation rate): ORN 8 nmol; for Fr (corrected functionalisation rate) / External/internal regiospecificity (uncorrected ratio of areas acylated mononucleosides / acylated dinucleotides): compound 30 mM, 1 h at 65° C., 250 mM TEAAc pH 7, 25% DMSO. The text has this:
For this purpose, a fixed quantity of ORN is reacted with an isatoic anhydride derivative conjugated to a molecule of interest (Cy3 IA Me (13)), under various temperature conditions, duration conditions, reaction medium conditions, etc. HPLC monitoring of the reaction at 260 nm makes it possible to detect the disappearance of the peak corresponding to the initial ORN and the appearance of peaks corresponding to acylated ORN. These products have a greater retention time and have an absorption spectrum corresponding to both that of ORN and that of the fluorescent label.
However, for greater precision on the functionalisation site and to precisely evaluate the functionalisation rate (Fr), the ORN population (labelled and unlabelled) is separated from the excess label by precipitation with acetone/lithium perchlorate or by gel permeation (NAP 5™, GE Health Care. Then the ORNs thus obtained are submitted to hydrolysis with the nuclease P1 (Aldrich, Saint Louis, USA) and with the alkaline phosphatase (Aldrich, Saint Louis, USA), in order to hydrolyse the phosphate diester bonds of ORN.
The ORN functionalisation rate (Fr) is evaluated by measuring: • the area corresponding to the terminal mononucleoside adducts (functionalised at 2′ and at 3′) and the area corresponding to the acylated dinucleosides (functionalised internally on 2′OH) • compared to the area of the peaks corresponding to the four ribonucleosides.
The internal/external regiospecificity of the acylation is evaluated by measuring the relative proportion of the areas corresponding to the: • end mono-nucleotides acylated at 2′ and at 3′ • and di-nucleotides acylated internally on 2′OH • which are easily detectable by HPLC.
The mixture is incubated for 60 minutes at 65° C. in an oven on a rack which is temperature-balanced in advance. An HPLC injection (conditions 3) makes it possible to monitor a formation of a certain quantity of acylated ORN as described in FIG. 6. To eliminate the salts and the excess label, the mixture is then purified on Sephadex NAP 5 gel (GE Health Care, Uppsala, Sweden)) and/or triple precipitation in 1.2 mL of a 180 mM Acetone/LiClO4 75/25 mixture. To finish, the pellet is dried with acetone and is evaporated with the centrifugal evaporator (RCT 60, Jouan, St Herblain, France). The residue is then taken up in 33 μL of a H2O/DMSO 85/15 solution and an HPLC injection (conditions 3) is performed in order to verify the proper elimination of the label. There is added to the mixture 2 μL of nuclease P1 (ref.: N8630 Sigma-Aldrich, St Louis, USA) in 1 U/μl solution in its buffer: 20 mM sodium acetate pH 5.5; 1 mM ZnCl2; 50 mM NaCl and 1 μL of 7 u/μl alkaline phosphatase in water (Ref. P7923-2KU Sigma-Aldrich, St Louis, USA). The medium is left at ambient temperature for 4 to 6 hours. It is then injected into HPLC (conditions 3) in order to verify the total hydrolysis of the ORN and in order to analyse the nature of the fragments obtained in accordance with what was described above and as described in FIG. 6.
The functionalisation rate is evaluated with UV at 260 nm by integration of the clusters corresponding to the acylated dinucleotides and to the acylated nucleosides) relative to the clusters corresponding to the four ribonucleosides. The ratio of the population of acylated dinucleotides to the population of acylated nucleosides is evaluated in the same way in order to evaluate the percentage of functionalisation on the 3′ terminal end.
The functionalisation rate values, presented within the framework of this invention, take into account the correction factor which must be applied according to the molar extinction coefficient at 260 nm of each of the nucleosides and according to whether they are nucleosides or dinucleotides. […]

Another experiment relates to ODN with 53 bases. The experiment is described as follows: RNA vs DNA chemoselectivity: functionalisation of an ODN with 53 bases. Format: biochemical. The conditions noted are these: compound 30 mM, DMSO/TEAAc buffer 25/75 (250 mM pH 7), 1 h at 65° C. The protocol:
After precipitation with acetone and hydrolysis with nuclease P1 and alkaline phosphatase, the hydrolysed fragments are analysed by LC-MS, as described in example 3. An example of the chromatograms monitoring the reaction of ODN or ORN with compound 13 is shown in FIG. 9, in which graphs A, B and C respectively represent ORN, ORN functionalised with compound 13 and precipitated, and ORN functionalised with 13, precipitated and hydrolysed. Graphs D, E and F represent the same thing, but with ODN.

The mark [2] stands for this setting: FIG. 6 graph D, share of functionalised adducts.

Turning to `Cn1c(=O)oc(=O)c2cc(NC(=O)CCSSCCNC(=O)CCOCCOCCOCCOCCNC(=O)CCCCC3SCC4NC(=O)NC43)ccc21` (centres unmarked) [5Biot PEG4 SS IA Me 24], in experiment [1], the “Fr (corrected functionalisation rate)” value is 2.8% and the “External/internal regiospecificity (uncorrected ratio of areas acylated mononucleosides / acylated dinucleotides)” value is 62/38. In addition, the “corrected functionalisation rate of the ODN” value in the experiment on ODN with 53 bases came to 0.1%.

On to `CCN1/C(=C\C=C\C2=[N+](CCCCCC(=O)Nc3ccc4c(c3)c(=O)oc(=O)n4C)c3ccc(S(=O)(=O)[O-])cc3C2(C)C)C(C)(C)c2cc(S(=O)(=O)[O-])ccc21.[K+]` [Cy3 IA Me 13, 1-methyl 5-Cy3-isatoic anhydride], for which, in experiment [1] (setting [2]), the “acylated dinucleotides (peak 1)” value is given as 42%; the “nucleosides acylated at 2′ or at 3′ (peaks 2 and 3)” value is on record as 58%. Moreover, in experiment [1], the “Fr (corrected functionalisation rate)” value worked out at 4.5% and the “External/internal regiospecificity (uncorrected ratio of areas acylated mononucleosides / acylated dinucleotides)” value is listed as 58/42. In addition, in experiment [1] (listed as 13), the “Fr (corrected functionalisation rate)” value was determined as 4.5%. Further, the “Fr (corrected functionalisation rate)” value in experiment [1] (listed as Cy3 IA ME (13)) is 4.2%. In experiment [1] (compound 15 mM, protocol of example 3), this compound had a corrected functionalisation rate of 2.6%. The “corrected functionalisation rate of the ODN” value in the experiment with ODN with 53 bases turned out to be 0.1%.

(Values after patent US20130253179A1, “Functionalization Processes and Reactants Used in Such Processes Using an Isatoic Anhydride or a Derivative Thereof, Biological Molecules Thus Treated and Kits” (priority 2010, published 2013).)
